This is an account of results in patent publication US8691808B2, “Antiviral compounds and their methods of use” (Influmedix, Inc., priority 2011, dated 2014).

Structures are written as SMILES. Counter-ions that a name gives are not always drawn.

For orientation: inhibition means the change of the read-out against control, counted positive when it falls.

The target in the first assay is T1, A/M2 protein (IonGate S31) (Influenza A virus, UniProt P0DOF5).
T1 construct: expressed in transfected cells; host or cells: CHO cell membranes
T1 sequence (P0DOF5 whole entry): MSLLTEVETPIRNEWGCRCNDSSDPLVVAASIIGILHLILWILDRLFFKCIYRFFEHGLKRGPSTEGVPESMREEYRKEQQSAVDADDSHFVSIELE
The assay can be described thus: Cell-free electrophysiology of M2 proton channels on solid supported membranes (SSM, IonGate SURFE2R). The following applies: 25 μM compound, activation by pH jump 7.0 to 6.0, % inhibition=100×(1−I/Io), hydrochloride, 25 µM. It is filed as biochemical.
Turning to `NC12CC3CC(CC(C(F)F)C(C3)C1)C2` (stereo not drawn) [Example 10, exo-4-(difluoromethyl)tricyclo[4.3.1.1^3,8]undecan-1-amine hydrochloride], the “IonGate S31 (% Inhibition Range at 25 μM)” value is “B (11-50% (B))”.
Take `NC12CC3CC(CC(C(F)F)C(C3)C1)C2` (stereo not drawn) [Example 11, endo-4-(difluoromethyl)tricyclo[4.3.1.1^3,8]undecan-1-amine hydrochloride]: the “IonGate S31 (% Inhibition Range at 25 μM)” value is reported as “A (51-95% (A))”.

The assay is the same for the next values; noted with them: 25 μM compound, activation by pH jump 7.0 to 6.0, % inhibition=100×(1−I/Io), read-out: IonGate S31 (% Inhibition Range at 25 μM).
`NC12CC3CC(CC(C1)C(O)C3)C2` (stereo not drawn) [Example 1, exo-1-aminotricyclo[4.3.1.1^3,8]undecan-4-ol hydrochloride]: the inhibition at 25 µM is 11 to 50%.
Turning to `NC12CC3CC(CC(C1)C(F)C3)C2` (stereo not drawn) [Example 3, endo-4-fluorotricyclo[4.3.1.1^3,8]undecan-1-amine hydrochloride], the inhibition at 25 µM lay in the range of 51 to 95%.
On to `NC12CC3CC(CC(C1)C(I)C3)C2` (centres unmarked) [Example 5, 4-iodotricyclo[4.3.1.1^3,8]undecan-1-amine hydrochloride], for which the inhibition at 25 µM lay in the range of 11 to 50%.
Regarding `N#CC1CC2CC3CC1CC(N)(C2)C3` (stereo not drawn) [Example 8, exo-1-aminotricyclo[4.3.1.1^3,8]undecane-4-carbonitrile hydrochloride], the inhibition at 25 µM lay within 51 to 95%.
In the case of `NC12CC3CC(=NO)C(CC(C3)C1)C2` (centres unmarked) [Example 12, 1-aminotricyclo[4.3.1.1^3,8]undecan-4-one oxime hydrochloride], the inhibition at 25 µM was 1 to 10%.
On to `NC12CC3CC(C1)OC(=O)C(C3)C2` (centres unmarked) [Example 13, 1-amino-4-oxatricyclo[4.3.1.1^3,8]undecan-5-one hydrochloride], for which the inhibition at 25 µM lay within 1 to 10%.
For the compound `NC12CC3CC(C1)NC(=O)C(C3)C2` (centres unmarked) [Example 14, 1-amino-4-azatricyclo[4.3.1.1^3,8]undecan-5-one hydrochloride], the inhibition at 25 µM lay within 1 to 10%.
Still for that read-out and setting: with `NC12CC3CNC(CC(C3)C1)C2` (centres unmarked) [Example 15, 4-azatricyclo[4.3.1.1^3,8]undecan-1-amine dihydrochloride] the figure was 11 to 50%; with `NC12CC3COC(CC(C3)C1)C2` (centres unmarked) [Example 16, 4-oxatricyclo[4.3.1.1^3,8]undecan-1-amine hydrochloride], 11 to 50%.
